pEC50: −log10 of the molar value.
What was measured:
[1] = system: HCT-116 xenograft; test: HCT-116 colorectal flank xenograft in nude mice; format: in vivo; details: 8 mg/kg IV, TIW for 21 days
Source text: FIG. 6A-6D show the evaluated in-vivo efficacy of Compound AA in a colorectal mouse flank xenograft models (HCT116, SW620). […] HCT-116 or SW620 cells (5×10^6 cells/mouse) were implanted in the rear flank of mail mice (6 weeks of age at the time of tumor implantation). On Day 20-23, mice were randomized for equivalent distribution of tumor volumes to treatment groups (n=5/group) and treated IV with vehicle, Compound AA (FIG. 6A, FIG. 6B) TIW for 21 days. Data are presented as mean tumor volume±SD. Body weight % changes in treated animals observed at end point (FIG. 6C, FIG. 6D). Animal xenograft models. MM1.S, HCT-116, SW620 cell lines were purchased from ATCC and used for xenograft model. The cells were cultured in RPMI medium (Sigma-Aldrich) supplemented with 10% fetal bovine serum (FBS) and divided for up to 5 passages. Shortly prior to injection, cell suspension was mixed with Matrigel at 1:[…]) and injected subcutaneously to the rear flank area of male nude athymic 6 weeks old mice to obtain administration of 5×10^6 cells/animal. On day 20-23, when tumor volume reached 100-150 mm^3, mice were randomized for equivalent distribution of tumor volumes to treatment groups (n=5/group) and treated via intravenous injection.

[2] = system: HCT-15; test: NCI60 screen cytotoxicity; format: cell-based; details: Homo sapiens, Colon cancer, read-out: Compound B1 EC50
[3] = system: HCT-116; test: NCI60 screen cytotoxicity; format: cell-based; details: Homo sapiens, Colon cancer, read-out: Compound B1 EC50
[4] = system: MM1.S; test: Cell viability, ATPlite 1-step, MM cell lines; format: cell-based; details: Homo sapiens; MM1.S MM cell line; 48 hours; read-out: Compound EC50
Procedure: Cell Viability. The assay was performed only when cell viability was ≥90%. Cells were seeded in 96-well white clear bottom plates at concentration of 100,000 cells/mL and treated with serially diluted compounds or vehicle (DMSO) control in triplicates for 48 hours (h). Cell viability was determined using the ATPlite 1-step assay system (PerkinElmer). The method was based on the production of light caused by the reaction of ATP, which was a marker for cell viability. […] were added to the plates which were read in a plate reader for luminescence. The emitted light is proportional to the ATP concentration. Viability was calculated as the percent of viable cells from control vehicle-treated cells. EC50 was calculated using Prism software.
Potency of compounds were assessed by viability assay.

Row | Compound | Animal body weight [1] | tumor growth compared to vehicle control [1] | pEC50 [2] | pEC50 [3] | pEC50 [4]
1 | CN(C)CCCS(=O)(=O)N1C/C(=C\c2ccc(C#N)cc2)C(=O)/C(=C/c2ccc(C#N)cc2)C1 [Compound AA] | not considerably affected | significantly inhibited tumor growth |  |  | 
2 | CN(C)CC(=O)NCC(=O)N1C/C(=C\c2ccc(C#N)cc2)C(=O)/C(=C/c2ccc(C#N)cc2)C1 [Compound B1] |  |  | > 6.52 | > 6.52 | > 6.52

Reference: patent US20200399262A1, “COMPOUNDS FOR INHIBITING PROTEIN DEGRADATION AND METHODS OF USE THEREOF IN THE TREATMENT OF CANCER” (PI Therapeutics Ltd, priority 2018, published 2020)
